Source: US20090035313A1, “Compounds” (Pfizer Inc., priority 2003, published 2009)
pIC50: −log10 of the molar value.

Tested on: TNFα release from human peripheral blood mononuclear cells
Test: Inhibition of LPS-stimulated TNFα release from human peripheral blood mononuclear cells (TNFα screen, ELISA)
Format: cell-based
Conditions: LPS-stimulated human PBMC, 18 hours incubation, TNFα in supernatant by ELISA
Description: Venous blood is collected from healthy volunteers and the mononuclear cells purified by centrifugation through Histopaque (Ficoll) cushions. TNFα production from these cells is stimulated by addition of lipopolysaccharide. After 18 hours incubation in the presence of LPS, the cell supernatant is removed and the concentration of TNFα in the supernatant determined by ELISA.

pIC50: 9.40
Compound: COc1ccc2cccnc2c1S(=O)(=O)N[C@H]1CC[C@@H](NC(=O)c2cccnc2OC2CCSCC2)CC1 [Example 29, Syn-N-[4-(7-methoxy-quinoline-8-sulfonylamino)-cyclohexyl]-2-(tetrahydro-thiopyran-4-yloxy)-nicotinamide]
